Paper PMC11990898, “Novel Isatin–Chalcone Hybrid Molecules: Design, Synthesis and Anti-Neuroinflammatory Activity Evaluation” (Molecules, 2025)
“And” between values parts separate entries of the source, which are not always exact repeats. Equal values may be shown once.

Columns and labels:
Assay type in all cases: cell-based, mouse
BV2 microglial cells = test: Cell viability assay (MTS) on BV2 cells; conditions: for cell viability: compound at 25 μM, MTS; for cell viability / IC50: 24 h; for IC50: Mus musculus, BV-2, MTS
Description: (§1) BV2 microglial cells (SCSP-5208, Cell Bank, Chinese Academy of Sciences, Shanghai, China) were incubated in high-glucose DMEM supplemented with 10% fetal bovine serum and 1% penicillin and streptomycin in a humidified atmosphere of 5% CO2 at 37 °C.
(§2) BV2 cells were plated in 96-well microplates at 20,000 cells per well (100 μL/well) and incubated for 24 h. Then, 100 μL of compounds (diluted with medium to a final concentration of 1.56–100 μM) was added, and each concentration had 3 parallel wells. After 24 h, the cell viability was measured by MTS assay. The absorbance was detected at 490 nm. The percentage of viability was obtained from the following formula: ODdrug-treated/ODnormal cells × 100. The IC50 values of test compounds were calculated by linear regression plots.

[1] = system: NO release from LPS-stimulated BV2 cells; test: NO release inhibition in LPS-stimulated BV2 cells (Griess method); conditions: for Nitrite (NO release amount): BV2 cells induced by LPS, Griess test; for Nitrite (NO release amount) / inhibition at 20 µM: compound at 20 μM; for inhibition at 20 µM / IC50: Mus musculus, BV-2, LPS-stimulated BV2 cells; for inhibition at 20 µM: read-out: NO inhibition rate; for IC50: 24 h
Description: BV2 cells stimulated by lipopolysaccharide (LPS) lead to an increase in NO release. Therefore, we used the inhibitory ability of the target compounds on NO as a preliminary method to evaluate their anti-neuroinflammatory properties. We evaluated the inhibitory ability of isatin–chalcone hybrid derivatives 4a–t on the release of NO from BV2 cells at 20 μM. The release amount of NO was detected by the Griess method, and the actual release amount of NO was calculated based on the experimental data.
BV2 cells were plated in 96-well microplates at 40,000 cells per well (100 μL/well) and incubated for 24 h. Then, 50 μL of LPS solution with a final concentration of 100 ng/mL and 50 μL of compounds (diluted with medium to a final concentration of 0.31–20 μM) were added, and each concentration had 3 parallel wells. The NO assay kit was used to carry out nitrite assays after 24 h. The 50 μL of culture medium was mixed with the GrisR1 (50 μL) and GrisR2 (50 μL) of the NO assay kit in another new 96-well plate. The absorbance was detected at 540 nm. The percentage of inhibition of NO was obtained from the following formula: [(Rlps − RB − RC)/(Rlps − RB)] × 100, where Rlps is the release amount of only the LPS-treated group, RB is the release amount of the normal control and RC is the release amount of the test compound and LPS-treated group. The IC50 values of test compounds were calculated by linear regression plots.

[2] = Cell viability assay (MTS) on BV2 cells; conditions: mouse, BV2 microglial cells, MTS
Description: as §1, §2

IL-6 = test: ELISA of IL-6 released by LPS-stimulated BV2 cells; conditions: result in words
Description: (§3) BV2 cells were plated in 96-well microplates at 40,000 cells per well (100 μL/well) and incubated for 24 h. Then, 50 μL of LPS solution with a final concentration of 100 ng/mL and 50 μL of compounds (diluted with medium to a final concentration of 0.75–40 μM) were added, and each concentration had 3 parallel wells. The supernatant was collected after 24 h. Then, according to the manufacturer’s instructions, the ELISA assay kit was used to measure the concentrations of IL-6 and TNF-α. The absorbance was detected at 450 nm.

TNF-α = test: ELISA of TNF-α released by LPS-stimulated BV2 cells; conditions: result in words
Description: as §3

What does the source list for `CCOC(=O)CN1C(=O)/C(=C/C(=O)c2ccccn2)c2ccccc21` [Compound 4s, Ethyl (E)-2-(2-oxo-3-(2-oxo-2-(pyridin-2-yl)ethylidene)indolin-1-yl)acetate]?
cell viability (BV2 microglial cells): nearly non-cytotoxic; Nitrite (NO release amount) [1]: 11.1 ± 0.4 µM

For `CCOC(=O)CN1C(=O)/C(=C/C(=O)c2cc(OC)c(OC)c(OC)c2)c2cc(I)ccc21` [Compound 9d, Ethyl (E)-2-(5-iodo-2-oxo-3-(2-oxo-2-(3,4,5-trimethoxyphenyl)ethylidene)indolin-1-yl)acetate], which inhibition at 20 µM [1] is on record?
Its inhibition at 20 µM is 22%.

For `COC(=O)CN1C(=O)/C(=C/C(=O)c2cc(OC)c(OC)c(OC)c2)c2ccccc21` [Compound 5a, Methyl (E)-2-(2-oxo-3-(2-oxo-2-(3,4,5-trimethoxyphenyl)ethylidene)indolin-1-yl)acetate], which IC50 (BV2 microglial cells) is on record?
The IC50 was 78.6 µM.

And the IC50 [1]?
The IC50 was 10.9 µM.

For `CCOC(=O)CN1C(=O)/C(=C/C(=O)C2CC2)c2ccccc21` [Compound 4t, Ethyl (E)-2-(3-(2-cyclopropyl-2-oxoethylidene)-2-oxoindolin-1-yl)acetate], which “Nitrite (NO release amount)” value [1] is on record?
Its value is 16.7 ± 0.2 µM.

For `CCOC(=O)CN1C(=O)/C(=C/C(=O)c2ccc3ccccc3c2)c2ccccc21` [Compound 4p, Ethyl (E)-2-(3-(2-(naphthalen-2-yl)-2-oxoethylidene)-2-oxoindolin-1-yl)acetate], which “Nitrite (NO release amount)” value [1] is on record?
Its value is 17.0 ± 0.3 µM.

For `CCOC(=O)CN1C(=O)/C(=C/C(=O)c2ccco2)c2ccccc21` [Compound 4q, Ethyl (E)-2-(3-(2-(furan-2-yl)-2-oxoethylidene)-2-oxoindolin-1-yl)acetate], which cell viability (BV2 microglial cells) is on record?
The cell viability was “nearly non-cytotoxic”.

And the “Nitrite (NO release amount)” value [1]?
The value was 20.2 ± 0.4 µM.

What about the inhibition at 20 µM [1] of the same molecule?
The inhibition at 20 µM was 30%.

With `CCOC(=O)CN1C(=O)/C(=C/C(=O)c2ccc(C)cc2)c2ccccc21` [Compound 4d, Ethyl (E)-2-(2-oxo-3-(2-oxo-2-(p-tolyl)ethylidene)indolin-1-yl)acetate] as the molecule, how does the “Nitrite (NO release amount)” value [1] read?
Its value is 12.5 ± 0.2 µM.

With `COc1cc(C(=O)/C=C2/C(=O)N(CC(=O)OCCc3ccccc3)c3ccccc32)cc(OC)c1OC` [Compound 5f, Phenethyl (E)-2-(2-oxo-3-(2-oxo-2-(3,4,5-trimethoxyphenyl)ethylidene)indolin-1-yl)acetate] as the molecule, how does the IC50 (BV2 microglial cells) read?
The IC50 was 42.7 µM.

And the IC50 [1]?
Its IC50 is 10.7 µM.

With `CCOC(=O)CN1C(=O)/C(=C/C(=O)c2ccc(C(C)C)cc2)c2ccccc21` [Compound 4f, Ethyl (E)-2-(3-(2-(4-isopropylphenyl)-2-oxoethylidene)-2-oxoindolin-1-yl)acetate] as the molecule, how does the cell viability (BV2 microglial cells) read?
The cell viability was “nearly non-cytotoxic”.

What about the “Nitrite (NO release amount)” value [1] of the same molecule?
Its value is 17.1 ± 0.3 µM.

For `CCOC(=O)CN1C(=O)/C(=C/C(=O)c2ccc[nH]2)c2ccccc21` [Compound 4r, Ethyl (E)-2-(2-oxo-3-(2-oxo-2-(1H-pyrrol-2-yl)ethylidene)indolin-1-yl)acetate], which “Nitrite (NO release amount)” value [1] is on record?
Its value is 20.5 ± 0.6 µM.

What about the inhibition at 20 µM [1] of the same molecule?
The inhibition at 20 µM was 28%.

With `CCOC(=O)CN1C(=O)/C(=C/C(=O)c2ccc([N+](=O)[O-])cc2)c2ccccc21` [Compound 4n, Ethyl (E)-2-(3-(2-(4-nitrophenyl)-2-oxoethylidene)-2-oxoindolin-1-yl)acetate] as the molecule, how does the “Nitrite (NO release amount)” value [1] read?
The value was 16.7 ± 0.3 µM.

Which viability at 24 h, 3.1 µM ([2]; compound at 3.1 μM, read-out: cell viability (cell survival rate)) does the source give for `CCCCCc1ccc(C(=O)/C=C2/C(=O)N(CC(=O)OCC)c3ccccc32)cc1` [Compound 4g, Ethyl (E)-2-(2-oxo-3-(2-oxo-2-(4-pentylphenyl)ethylidene)indolin-1-yl)acetate] here?
Its viability at 24 h, 3.1 µM is 98.4%.

And the viability at 24 h, 6.3 μM ([2]; compound at 6.3 μM (printed 6.23 μM for 4b), read-out: cell viability (cell survival rate))?
Its viability at 24 h, 6.3 μM is 95.1%.

What about the viability at 24 h, 12.5 µM ([2]; compound at 12.5 μM) of the same molecule?
Its viability at 24 h, 12.5 µM is 83.9%.

And the viability at 24 h, 25 µM ([2]; compound at 25 μM, 24 h)?
The viability at 24 h, 25 µM was 42%.

And the IC50 (BV2 microglial cells)?
Its IC50 is 30.1 µM.

What about the cytotoxicity (BV2 microglial cells; under the concentration of 12.5 μM) of the same molecule?
The cytotoxicity was “did not show obvious cytotoxicity”.

And the “Nitrite (NO release amount)” value [1]?
Its value is 8.5 ± 0.1 µM.

And the IC50 [1]?
Its IC50 is 10.8 µM.

What about the inhibition at 20 µM [1] of the same molecule?
The inhibition at 20 µM was 73%.

With `CCOC(=O)CN1C(=O)/C(=C/C(=O)c2ccc(OCC)cc2)c2ccccc21` [Compound 4i, Ethyl (E)-2-(3-(2-(4-ethoxyphenyl)-2-oxoethylidene)-2-oxoindolin-1-yl)acetate] as the molecule, how does the “Nitrite (NO release amount)” value [1] read?
The value was 15.3 ± 0.3 µM.

For `CCOC(=O)CN1C(=O)/C(=C/C(=O)c2ccc(F)cc2)c2ccccc21` [Compound 4k, Ethyl (E)-2-(3-(2-(4-fluorophenyl)-2-oxoethylidene)-2-oxoindolin-1-yl)acetate], which “Nitrite (NO release amount)” value [1] is on record?
Its value is 15.2 ± 0.2 µM.

Which IC50 (BV2 microglial cells) does the source give for `CCCCCCCOC(=O)CN1C(=O)/C(=C/C(=O)c2cc(OC)c(OC)c(OC)c2)c2ccccc21` [Compound 5b, Heptyl (E)-2-(2-oxo-3-(2-oxo-2-(3,4,5-trimethoxyphenyl)ethylidene)indolin-1-yl)acetate] here?
Its IC50 is 45.3 µM.

What about the IC50 [1] of the same molecule?
Its IC50 is 15.8 µM.

Which “Nitrite (NO release amount)” value [1] does the source give for `CCOC(=O)CN1C(=O)/C(=C/C(=O)c2ccc(OC)cc2)c2ccccc21` [Compound 4h, Ethyl (E)-2-(3-(2-(4-methoxyphenyl)-2-oxoethylidene)-2-oxoindolin-1-yl)acetate] here?
The value was 20.6 ± 0.6 µM.

With `CCOC(=O)CN1C(=O)/C(=C/C(=O)c2ccccc2)c2ccccc21` [Compound 4c, Ethyl (E)-2-(2-oxo-3-(2-oxo-2-phenylethylidene)indolin-1-yl)acetate] as the molecule, how does the “Nitrite (NO release amount)” value [1] read?
The value was 19.3 ± 0.5 µM.

With `CCOC(=O)CN1C(=O)/C(=C/C(=O)c2ccc(Cl)cc2)c2ccccc21` [Compound 4l, Ethyl (E)-2-(3-(2-(4-chlorophenyl)-2-oxoethylidene)-2-oxoindolin-1-yl)acetate] as the molecule, how does the “Nitrite (NO release amount)” value [1] read?
Its value is 17.5 ± 0.3 µM.

With `CCOC(=O)CN1C(=O)/C(=C/C(=O)c2cc(OC)c(OC)c(OC)c2)c2cc(OC)ccc21` [Compound 9f, Ethyl (E)-2-(5-methoxy-2-oxo-3-(2-oxo-2-(3,4,5-trimethoxyphenyl)ethylidene)indolin-1-yl)acetate] as the molecule, how does the IC50 (BV2 microglial cells) read?
The IC50 was 78.1 µM.

What about the IC50 [1] of the same molecule?
Its IC50 is 10.4 µM.

And the inhibition at 20 µM [1]?
Its inhibition at 20 µM is 68%.

Which “Nitrite (NO release amount)” value [1] does the source give for `O=C1Nc2ccccc2C1=O` [Isatin, 1H-indole-2,3-dione] here?
Its value is 20.8 ± 0.9 µM.

Which cell viability (BV2 microglial cells) does the source give for `CCOC(=O)CN1C(=O)/C(=C/C(=O)c2ccc(-c3ccccc3)cc2)c2ccccc21` [Compound 4o, Ethyl (E)-2-(3-(2-([1,1′-biphenyl]-4-yl)-2-oxoethylidene)-2-oxoindolin-1-yl)acetate] here?
Its cell viability is “nearly non-cytotoxic”.

What about the “Nitrite (NO release amount)” value [1] of the same molecule?
Its value is 19.0 ± 0.4 µM.

For `CCOC(=O)CN1C(=O)/C(=C/C(=O)c2ccc(CC)cc2)c2ccccc21` [Compound 4e, Ethyl (E)-2-(3-(2-(4-ethylphenyl)-2-oxoethylidene)-2-oxoindolin-1-yl)acetate], which “Nitrite (NO release amount)” value [1] is on record?
The value was 15.2 ± 0.3 µM.

Which IC50 (BV2 microglial cells) does the source give for `COc1cc(C(=O)/C=C2/C(=O)N(CC(=O)OCCCc3ccccc3)c3ccccc32)cc(OC)c1OC` [Compound 5g, 3-Phenylpropyl (E)-2-(2-oxo-3-(2-oxo-2-(3,4,5-trimethoxyphenyl)ethylidene)indolin-1-yl)acetate] here?
Its IC50 is 48.5 µM.

And the IC50 [1]?
The IC50 was 6 µM.

What about the “effect on production of IL-6” value (IL-6) of the same molecule?
Its value is “relatively weaker inhibitory effects”.

And the “effect on production of TNF-α” value (TNF-α)?
Its value is “relatively weaker inhibitory effects”.

For `CCOC(=O)CN1C(=O)/C(=C/C(=O)c2ccc(Br)cc2)c2ccccc21` [Compound 4m, Ethyl (E)-2-(3-(2-(4-bromophenyl)-2-oxoethylidene)-2-oxoindolin-1-yl)acetate], which “Nitrite (NO release amount)” value [1] is on record?
The value was 18.6 ± 0.3 µM.

Which results are given for `CCCCCCCCCCCOC(=O)CN1C(=O)/C(=C/C(=O)c2cc(OC)c(OC)c(OC)c2)c2ccccc21` [Compound 5c, Undecyl (E)-2-(2-oxo-3-(2-oxo-2-(3,4,5-trimethoxyphenyl)ethylidene)indolin-1-yl)acetate]?
IC50 (BV2 microglial cells): 19.8 µM; IC50 [1]: 6.3 µM

For `CCOC(=O)CN1C(=O)/C(=C/C(C)=O)c2ccccc21` [Compound 4a, Ethyl (E)-2-(2-oxo-3-(2-oxopropylidene)indolin-1-yl)acetate], which “Nitrite (NO release amount)” value [1] is on record?
Its value is 22.9 µM and 22.9 ± 0.5 µM.
